{"source": "patent US20070207993A1", "about": "“Molybdenum carbonyl complexes for treating rheumatoid arthritis and other inflammatory diseases” (Alfama - Investigacao e Desenvolvimetno De Productos …, priority 2005, published 2007)", "key": {"[1]": {"experiment": "Spontaneous CO release from suspensions (gas chromatography, TCD)", "format": "physicochemical", "settings": "dark; for Equivalents of CO released, H2O pH = 2.13: suspension in H2O pH 2.13, 37° C.; for Equivalents of CO released, H2O pH = 8.3: suspension in H2O pH 8.3, 37° C.; for Equivalents of CO released, RPMI: suspension in RPMI with 10% FBS; for Equivalents of CO released, RPMI / CO equivalents (average ± standard deviation) / Equivalents of CO released, Olive oil: 37° C.; for CO equivalents (average ± standard deviation): suspension in RPMI, eight independent assays; for Equivalents of CO released, Olive oil: suspension in olive oil", "experimental": "CO detection was carried out by Gas Chromatography using a thermal conductivity detector (TCD) for the quantification of CO and CO2. The experiments were done under an initial atmosphere of reconstituted air, free of CO and CO2. […] […] Samples were withdrawn with gas-tight Hamilton syringes after homogenization of the head-space at given time intervals, preferably 2 hours, 4 hours and 6 hours. […] The volumes of CO released are usually in the range between 0.5-3 mL.\nAs a possible result of the use of suspensions, the number of CO equivalents released in RPMI varied slightly. As an example of the possible variations, the average of eight independent assays done with suspensions of Compound I.1 is given in Table 2."}, "[2]": {"test_system": "Balb/c mice", "experiment": "Mortality in mice after injection of a lethal dose of LPS", "format": "in vivo", "settings": "LPS 10 mg/kg i.p., four i.p. injections of 20 mg/kg at -60, -30 min, +4 h, +9 h", "experimental": "Seventeen eight week old Balb/c mice received one intraperitoneal injection of LPS at a dose of 10 mg/kg at time zero. One group of eight mice received four intraperitoneal injections of Compound I.1, each at a dose of 20 mg/kg, at 60 and 30 minutes before LPS and at 4 hours and 9 hours after LPS. A second group of 9 mice received four intraperitoneal injections of vehicle (carboxymethylcellulose 0.5%, Tween80 0.5%) at 60 and 30 minutes before LPS and at 4 hrs and 9 hrs after LPS. Survival of the mice was monitored for 168 hours."}, "[3]": {"test_system": "Wistar rats", "experiment": "Adjuvant arthritis in rats", "format": "in vivo, rat", "experimental": "Adjuvant arthritis was induced in 11 week old, outbred Wistar rats (376-400 g) by a single intradermal injection into the subplanatar area of the right hind paw of 100 microliter of a 10 mg/ml suspension of mycobacterium butyricum in incomplete Freund's Adjuvant. The disease was induced in 3 groups of rats each consisting of 7 animals. […] Groups 2 and 3 received daily applications of methylene chloride (positive control) (500 mg/kg), or Compound I.1 (80 mg/kg), respectively. Both compounds were administered in olive oil by oral gavage. Treatment was initiated at day 10 after disease induction when signs of arthritis began to appear in the injected footpad as well as in the contralateral footpad. […] All animals were evaluated daily by determination of body weight, foot pad volume (performed by a water displacement method using a plethysmometer, Ugo Basile, Comerio, Italy), ankle circumference (using a flexible measuring tape) and arthritic index that is based on levels of erythema and oedema of the entire paws and digits, number of joints involved, spondilosis, lesions on tail, movement capacity and infections (0=normal, 1=swelling and/or redness of injected paw; 4=severe arthritis of the entire injected paw and digits; +2=2 joints are involved; +3=>2 joints are involved; +1=infection of paws; +1=tail lesions; +1=movement incapacity; +1=spondilosis). […]"}, "[4]": {"experiment": "Solubility in water and RPMI", "format": "physicochemical"}, "[5]": {"test_system": "Sprague Dawley rats", "experiment": "Toxicity in vivo, 20-day daily dosing", "parameters": "species or system rat", "settings": "80 mg/kg daily for 20 days, in olive oil", "experimental": "Compound I.1 was dissolved in olive oil and administered to Sprague Dawley rats at a daily dose of 80 mg/kg for 20 days. At the end of the treatment the rats were anesthetized, blood was collected and organ samples were fixed in formalin for histological analysis."}, "[6]": {"experiment": "CO release in the presence of reactive oxygen species (TBHP, H2O2, KO2)", "format": "physicochemical", "settings": "25° C., dark; for Equivalents of CO2 released, H2O2 / Equivalents of CO released, H2O2: H2O2 100:1, water; for Equivalents of CO2 released, KO2 / Equivalents of CO released, KO2: KO2 100:1, THF; for Equivalents of CO2 released, TBHP / Equivalents of CO released, TBHP: TBHP 100:1, water", "experimental": "The studies were done using the same method and apparatus described in Example 7 with the following modifications: RPMI/FBS was replaced by double distilled water in the experiments with H2O2 and TBHP and by tetrahydrofuran (THF) for the experiments with KO2; the temperature was kept at 25° C. The concentration of Compound I.1 was approximately 1 mM and the ration of concentrations of H2O2, TBHP and KO2 relative to Compound I.1 was 100:1. The amount of CO2 generated was also measured in the same experiment to ascertain the concurrent oxidation of coordinated CO. TBHP was added from a 70% aqueous solution and H2O2 from a 30% aqueous solution."}}, "data": [{"smiles": "O=[C][Mo]([Br])([C]=O)([C]=O)([C]=O)[C]=O", "note": "[Compound I.1]", "values": [{"measurement": "Equivalents of CO released, H2O pH = 2.13", "setting": "[1]; 2 hours", "result": "0.98 equivalents of CO"}, {"measurement": "Equivalents of CO released, H2O pH = 2.13", "setting": "[1]; 4 hours", "result": "1.00 equivalents of CO"}, {"measurement": "Equivalents of CO released, H2O pH = 2.13", "setting": "[1]; 6 hours", "result": "0.93 equivalents of CO"}, {"measurement": "Equivalents of CO released, H2O pH = 8.3", "setting": "[1]; 2 hours", "result": "1.24 equivalents of CO"}, {"measurement": "Equivalents of CO released, H2O pH = 8.3", "setting": "[1]; 4 hours", "result": "1.03 equivalents of CO"}, {"measurement": "Equivalents of CO released, H2O pH = 8.3", "setting": "[1]; 6 hours", "result": "0.98 equivalents of CO"}, {"measurement": "Equivalents of CO released, RPMI", "setting": "[1]; 2 hours", "result": "1.82 equivalents of CO"}, {"measurement": "Equivalents of CO released, RPMI", "setting": "[1]; 4 hours", "result": "2.16 equivalents of CO"}, {"measurement": "Equivalents of CO released, RPMI", "setting": "[1]; 6 hours", "result": "2.27 equivalents of CO"}, {"measurement": "CO equivalents (average ± standard deviation)", "setting": "[1]; 0.5 hours", "result": "0.64 ± 0.11", "unit": "CO equivalents"}, {"measurement": "CO equivalents (average ± standard deviation)", "setting": "[1]; 1 hour", "result": "1.56 ± 0.13", "unit": "CO equivalents"}, {"measurement": "CO equivalents (average ± standard deviation)", "setting": "[1]; 2 hours", "result": "1.82 ± 0.01", "unit": "CO equivalents"}, {"measurement": "CO equivalents (average ± standard deviation)", "setting": "[1]; 3 hours", "result": "2.42 ± 0.38", "unit": "CO equivalents"}, {"measurement": "CO equivalents (average ± standard deviation)", "setting": "[1]; 4 hours", "result": "2.16 ± 0.13", "unit": "CO equivalents"}, {"measurement": "CO equivalents (average ± standard deviation)", "setting": "[1]; 5 hours", "result": "2.43 ± 0.39", "unit": "CO equivalents"}, {"measurement": "CO equivalents (average ± standard deviation)", "setting": "[1]; 6 hours", "result": "2.27 ± 0.21", "unit": "CO equivalents"}, {"measurement": "CO equivalents (average ± standard deviation)", "setting": "[1]; 7 hours", "result": "2.51 ± 0.00", "unit": "CO equivalents"}, {"measurement": "CO equivalents (average ± standard deviation)", "setting": "[1]; 24 hours", "result": "2.40 ± 0.00", "unit": "CO equivalents"}, {"measurement": "Equivalents of CO released, Olive oil", "setting": "[1]; 2 hours", "result": "0.08 equivalents of CO"}, {"measurement": "Equivalents of CO released, Olive oil", "setting": "[1]; 4 hours", "result": "0.25 equivalents of CO"}, {"measurement": "Equivalents of CO released, Olive oil", "setting": "[1]; 6 hours", "result": "0.53 equivalents of CO"}, {"measurement": "mice alive at 168 hours following LPS injection", "setting": "[2]", "result": "three of the eight"}, {"measurement": "paw volume, paw circumference and arthritis index (all measured parameters) versus positive control", "setting": "[3]; Wistar rats, 80 mg/kg daily oral gavage in olive oil, day 10 to 29, methylene chloride at 500 mg/kg", "result": "superior to methylene chloride"}, {"measurement": "effect in control rats with severe arthritis treated from day 20 on", "setting": "[3]; three rats of the control group, treated for 10 days", "result": "signs of improvements"}, {"measurement": "solubility in water and RPMI", "setting": "[4]", "result": "low solubility"}, {"measurement": "histologic analysis of liver, kidney, heart, and spleen", "setting": "[5]", "result": "did not reveal any gross alterations"}, {"measurement": "serum creatinine", "setting": "[5]", "result": "in the normal range"}, {"measurement": "serum glutamic oxalacetic transaminase (sGOT)", "setting": "[5]", "result": "in the normal range"}, {"measurement": "serum glutamic pyruvic transaminase (sGPT)", "setting": "[5]", "result": "in the normal range"}, {"measurement": "serum urea", "setting": "[5]", "result": "in the normal range"}, {"measurement": "signs of liver or kidney toxicity", "setting": "[5]", "result": "No signs of liver or kidney toxicity"}, {"measurement": "Equivalents of CO2 released, H2O2", "setting": "[6]; 1 h", "result": 0.41, "unit": "equivalents"}, {"measurement": "Equivalents of CO released, H2O2", "setting": "[6]; 1 h", "result": 1.08, "unit": "equivalents"}, {"measurement": "Equivalents of CO2 released, H2O2", "setting": "[6]; 3 h", "result": 0.80, "unit": "equivalents"}, {"measurement": "Equivalents of CO released, H2O2", "setting": "[6]; 3 h", "result": 1.49, "unit": "equivalents"}, {"measurement": "Equivalents of CO2 released, H2O2", "setting": "[6]; 5 h", "result": 0.90, "unit": "equivalents"}, {"measurement": "Equivalents of CO released, H2O2", "setting": "[6]; 5 h", "result": 1.46, "unit": "equivalents"}, {"measurement": "Equivalents of CO2 released, H2O2", "setting": "[6]; 24 h", "result": 0.89, "unit": "equivalents"}, {"measurement": "Equivalents of CO released, H2O2", "setting": "[6]; 24 h", "result": 1.43, "unit": "equivalents"}, {"measurement": "Equivalents of CO2 released, KO2", "setting": "[6]; 1 h", "result": 0.00, "unit": "equivalents"}, {"measurement": "Equivalents of CO released, KO2", "setting": "[6]; 1 h", "result": 1.94, "unit": "equivalents"}, {"measurement": "Equivalents of CO2 released, KO2", "setting": "[6]; 3 h", "result": 0.00, "unit": "equivalents"}, {"measurement": "Equivalents of CO released, KO2", "setting": "[6]; 3 h", "result": 3.22, "unit": "equivalents"}, {"measurement": "Equivalents of CO2 released, KO2", "setting": "[6]; 5 h", "result": 0.00, "unit": "equivalents"}, {"measurement": "Equivalents of CO released, KO2", "setting": "[6]; 5 h", "result": 2.54, "unit": "equivalents"}, {"measurement": "Equivalents of CO2 released, KO2", "setting": "[6]; 24 h", "result": 0.00, "unit": "equivalents"}, {"measurement": "Equivalents of CO released, KO2", "setting": "[6]; 24 h", "result": 2.29, "unit": "equivalents"}, {"measurement": "Equivalents of CO2 released, TBHP", "setting": "[6]; 1 h", "result": 0.51, "unit": "equivalents"}, {"measurement": "Equivalents of CO released, TBHP", "setting": "[6]; 1 h", "result": 2.51, "unit": "equivalents"}, {"measurement": "Equivalents of CO2 released, TBHP", "setting": "[6]; 3 h", "result": 0.95, "unit": "equivalents"}, {"measurement": "Equivalents of CO released, TBHP", "setting": "[6]; 3 h", "result": 3.77, "unit": "equivalents"}, {"measurement": "Equivalents of CO2 released, TBHP", "setting": "[6]; 5 h", "result": 1.07, "unit": "equivalents"}, {"measurement": "Equivalents of CO released, TBHP", "setting": "[6]; 5 h", "result": 3.94, "unit": "equivalents"}, {"measurement": "Equivalents of CO2 released, TBHP", "setting": "[6]; 24 h", "result": 1.13, "unit": "equivalents"}, {"measurement": "Equivalents of CO released, TBHP", "setting": "[6]; 24 h", "result": 3.93, "unit": "equivalents"}]}]}
